8 compounds from PMC7567501 (Journal of Enzyme Inhibition and Medicinal Chemistry, 2019) can be followed below.

Like-named read-outs stand apart in the source and are kept apart here.

In one data set the target is T1, AChE (Electrophorus electricus, UniProt O42275).
T1 construct: extracted from Electrophorus electricus (electric eel); purchased Sigma-Aldrich; host or cells: Electrophorus electricus (extracted)
Briefly: biochemical. Set-up: species or system Electrophorus electricus (electric eel). As for the experimental part:
The electronic spectra and the AChE inhibition assays were performed in a 1-cm path length quartz cell with a Perkin Elmer Lambda 35 spectrophotometer equipped with a temperature programmer PTP1 + 1 Peltier System (T = 25.0 ± 0.1 °C). The enzyme AChE 500 U, extracted from Electrophorus electricus (electric eel), was purchased from Sigma-Aldrich.
The enzymatic activity of AChE was determined using an adaptation of the Ellman’s method, as described previously[29]^,[32]. Firstly, a stock solution of AChE was prepared by dissolving enzyme 500 U in 10 mL of tris(hydroxymethyl)aminomethane (TRIS) buffer (50 mM, pH 8). Then, 4–(2-hydroxyethyl)-1-piperazineethanesulfonic acid (HEPES) buffer was used for further dilution of the enzyme solution therefore obtaining the final working solution of AChE. The assay solution consisted of 374 µL of HEPES buffer (50 mM and pH 8.0), a variable volume (10–50 µL) of the compound’s stock solution (1 mg/mL of MeOH), 476 µL of 3 mM bis(3-carboxy-4-nitrophenyl) disulphide (DTNB), 25 µL of AChE stock solution and the necessary amount of methanol to attain the same volume of sample mixture in a 1 mL cuvette. After mixing, samples were left to incubate for 15 min and then 75 µL of 16 mM acetylthiocholine iodide (AChI) solution was added and immediately the reaction was monitored at 405 nm for 5 min. Firstly, enzyme activity was determined by measuring the rate of enzymatic reaction in solution by recording absorbance (with or without enzyme) at 405 nm. To calculate the percent inhibition of AChE, the enzyme activity in the presence of increasing concentrations of the test compound, as well as for a blank reaction (methanol without compounds), were measured at 405 nm.
Where v1is the initial reaction rate in the presence of the inhibitor and v0 is the initial rate of the control reaction. The curves of inhibition were obtained using a plot of percentage of enzymatic inhibition versus inhibitor concentration, and a calibration curve was obtained from which the linear regression parameters were obtained.

The target of data set [1] is T2, Aβ1-42 (Homo sapiens, UniProt P05067).
T2 construct: Amyloid β-peptide (1–42), Aβ1-42, was purchased from GeneCust; purchased GeneCust
T2 sequence (P05067 672-713 limits assumed): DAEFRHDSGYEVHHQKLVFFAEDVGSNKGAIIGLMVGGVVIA
As to the kind of experiment: biochemical. The following applies: read-out: Aβ aggregation inhibition, Self-Aβ aggr. An excerpt: (§1) The Aβ amyloid plaques are one of the main hallmarks of AD and they result from over production and aggregation of β-amyloid peptide, which can accumulate outside the neurons, by self-mediated or Cu^2+-induced process, interfering with the synaptic impairment, neurotransmission and memory. Therefore, anti-AD drugs have been designed aimed to disrupt and disaggregate the Aβ’s fibrils into monomers, obtaining non-toxic forms of β-secretase’s products. To assess the effect of these new hybrids in the inhibition of amyloid peptide aggregation, a selection of the compounds was in vitro assayed, based on the thioflavin T (ThT) method. Indeed ThT is a histochemical dye able to create ionic or hydrophobic interactions with the peptide β–sheets, the predominant secondary structure of the amyloid fibrils in aqueous solutions[36]. This binding interactions can be monitored by fluorimetry since the presence of ThT-fibrils increases the absorbance and the emission of the ThT dye, and induces red shifts on the absorbance (from 385 to 446 nm) and emission peaks (from 445 to 485 nm)[14]. All the measurements were performed after incubation of the self-mediated and Cu^2+-induced Aβ aggregates in the presence/absence of the herein studied compounds. […]. […] This may be rationalised on the basis of their copper chelating capacity, as previously shown by other metal chelating compounds[14]^,[38]. Furthermore, despite some exceptions (e.g. 20 and 24), the increase in linker length and the chloro TAC substitution induce some small negative effects in the inhibition of Aβ self-aggregation.
(§2) For the study of the β-amyloid (Aβ) aggregation, the ThT fluorescence assay was performed using a Varian Cary Eclipse fluorimeter at the following wavelengths: excitation (446 nm) and emission (485 nm). Amyloid β-peptide (1–42), Aβ1-42, was purchased from GeneCust as a lyophilised powder stored at −20 °C. TEM assays were performed with a Hitachi H8100 transmission electron microscope with a LaB6 filament (200 kV, 10000–20000 × magnification) at MicroLab/IST.
(§3) Among all the methods to measure the aggregation of Aβ1-42, the assay based on Thioflavin T (ThT) is the standard procedure based on the fluorescence of this dye[49]^,[50]. This test is performed with Aβ1-42 peptide previously prepared by dissolving it in 1,1,1,3,3,3–hexafluoro-2-propanol (HFIP), an organic solvent useful to solubilise and monomerize the β–sheet protein aggregates and reserve them in the fridge. Films are re-dissolved in an Eppendorf tube with a fresh solution of a mixture of CH3CN/Na2CO3/NaOH, to have a stable stock solution, and afterwards, added to an optimised fibrillation phosphate buffer. The samples were prepared using MeOH (1 mg/mL) as solvent, followed by incubation in a water bath for 24 h at 37 °C with gentle shaking. After incubation, the samples were added to a 96-well plate (BD Falcon) with 180 µL of 5 µM ThT in 50 mM glycine-NaOH (pH 8.5) buffer. Blank samples were prepared for each concentration in a similar way, devoid of peptide. After 5-min incubation with the dye, the ThT fluorescence was measured at 446 nm (excitation) and 485 nm (emission).

A short description of data set [2]: Radical scavenging (anti-oxidant) activity, DPPH method. It counts as physicochemical. The following applies: DPPH in methanol, 30 min, room temperature. The procedure: A selection of the newly synthesised hybrids was tested for their radical scavenging activity (anti-oxidant activity, EC50), based on their interaction with the 2,2-diphenyl-1-picrylhydrazyl (DPPH) free radical, as previously described.
The anti-oxidant capacity or, more precisely, radical scavenging activity based on the electron and proton donation ability, was evaluated by the DPPH method previously described[29]^,[46]. To a 2.5 mL solution of DPPH (0.002%) in methanol, solutions of each compound were added in different volumes to obtain different concentrations in a 3.5 mL final volume. The samples were incubated for 30 min at room temperature. The absorbance was measured at 517 nm against the corresponding blank (methanol). The antioxidant activity was calculated by Eq. (1)^29. (1) %AA = ((ADPPH−Asample)/ADPPH) × 100
The tests were carried out in triplicate. The compound concentration providing 50% of antioxidant activity (EC50) was obtained by plotting the antioxidant activity against the compound concentration.
(In general: The DPPH test is a chemical assay of radical scavenging.)

Data set [3] has as its target T2, Aβ1-42. Briefly: Inhibition of Cu2+-induced Aβ1-42 aggregation, thioflavin T fluorescence. It counts as biochemical. The following applies: Aβ42 aggregation with copper (40 µM); inhibitor 80 µM; ThT fluorescence; read-out: Aβ aggregation inhibition, Cu-ind Aβ aggr.
Excerpt: as §1, §2
as §3, with “The samples were prepared using MeOH (1 mg/mL) as solvent, followed by incubation in a water bath for 24 h at 37 °C with gentle shaking. After incubation, the samples were added to a 96-well plate (BD Falcon) with 180 µL of 5 µM ThT in 50 mM glycine-NaOH (pH 8.5) buffer. Blank samples were prepared for each concentration in a similar way, devoid of peptide.” left out

The next data set relates to SH-SY5Y cells. Briefly: Dose-response screening for non-toxic concentrations, MTT reduction assay. It counts as cell-based, human. The settings on record: 10 µM to 40 µM, 25 h. The procedure:
The neuroprotective effect of these new multi-target drugs designed for AD was evaluated using SH-SY5Y cells treated with Aβ1-42 peptides or ascorbate/iron. For each compound we performed a dose-response curve to select a non-toxic concentration (Figure 7).
Figure 7. Dose-response screening to select non-toxic concentrations of TAC-BF hybrids. Cells were treated with varying concentration of TAC-BF conjugates (from 10 μM to 40 μM) for 25 h and cell viability was determined using the MTT reduction assay.
SH-SY5Y human neuroblastoma cell line (ATCC-CRL-2266) is grown in Dulbecco’s modified Eagle’s medium (DMEM), and were obtained from Gibco-Invitrogen (Life Technologies Ltd, UK) with 10% heat inactivated foetal calf serum, containing 50 U/mL penicillin and 50 µg/mL streptomycin, under a humidified atmosphere of 95% air- 5% CO2 at 37 °C. Cells were plated at 0.12 × 10^6 cells/mL for cell viability assay. The tested compounds (18, 19, 20, 21, 23 and 24) were dissolved in DMSO at a concentration of 50 mM and aliquots were stored at −20 °C. We performed a dose-response screening (from 10 µM to 40 µM) in order to choose the highest non-toxic concentration. As a result we selected: 20 µM final concentrations for compounds 18, 19, 20 and 23; 20 µM final concentration for compound 19; 35 µM final concentration for compounds 21 and 24. […] The compounds were added to the cell media 1 h before the incubation with Aβ1-42 or L-ascorbic acid/ferrous sulphate. Aβ1-42 or L-ascorbic acid/ferrous sulphate where incubated alone or with the compound for an additional 24 h. Aβ1-42 was prepared as 276.9 µM stock in sterile water and added to the medium at 2.5 µM final concentration. Ferrous sulphate was freshly prepared as 0.36 M stock in water and added to the medium at 500 µM final concentration. L-Ascorbic Acid was freshly prepared as 80 mM stock in water and added to the medium at 5 mM final concentration. Aβ1-42 was purchased from Bachem (Torrance, CA, USA) and ferrous sulphate and L-ascorbic acid from Sigma Chemical Co (St. Louis, MO, USA).
Cell viability was determined by the MTT (3–(4,5-dimethylthiazol-2-yl)-2,5-diphenyltetrazolium bromide) reduction test. In viable cells, the enzyme succinate dehydrogenase metabolises MTT into a formazan that absorbs light at 570 nm. Following the cell treatment protocol, the medium was aspirated and 0.5 mL MTT (0.5 mg/mL) was added to each well. The plate was then incubated at 37 °C for 1 h 30 min protected from light. At the end of the incubation period, the formazan precipitates were solubilised with 0.5 mL of acidic isopropanol (0.04 M HCl/isopropanol). The absorbance was measured at 570 nm[51]. Cell reduction ability was expressed as a percentage of untreated control cells.
In general terms: Tetrazolium assays rely on reduction of a dye to a coloured formazan, in cell work by metabolically active cells.

Setting [4] is: AChE from Electric eel, mean of five independent experiments, read-out: AChE inhibition IC50.
The mark [5] stands for this setting: self-mediated Aβ42 aggregation without copper, inhibitor 80 µM, ThT fluorescence.

T1 sequence (O42275 24-633): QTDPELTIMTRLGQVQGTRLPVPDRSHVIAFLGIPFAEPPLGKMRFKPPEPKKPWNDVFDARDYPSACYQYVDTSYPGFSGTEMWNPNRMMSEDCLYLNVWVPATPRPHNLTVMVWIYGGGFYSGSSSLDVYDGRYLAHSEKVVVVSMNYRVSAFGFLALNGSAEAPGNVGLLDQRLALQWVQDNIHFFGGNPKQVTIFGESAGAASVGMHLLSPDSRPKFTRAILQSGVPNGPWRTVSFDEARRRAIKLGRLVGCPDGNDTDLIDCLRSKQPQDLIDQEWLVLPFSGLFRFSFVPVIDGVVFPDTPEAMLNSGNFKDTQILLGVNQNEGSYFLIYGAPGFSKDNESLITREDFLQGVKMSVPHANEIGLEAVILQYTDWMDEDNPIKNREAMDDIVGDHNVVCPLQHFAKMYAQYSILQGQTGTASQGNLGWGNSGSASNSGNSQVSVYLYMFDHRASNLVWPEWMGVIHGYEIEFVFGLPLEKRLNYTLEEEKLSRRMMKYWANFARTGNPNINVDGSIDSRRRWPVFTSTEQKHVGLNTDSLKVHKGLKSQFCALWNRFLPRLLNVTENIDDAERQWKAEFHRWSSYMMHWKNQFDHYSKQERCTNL

On to `O=C(NCCCNc1c2c(nc3cc(Cl)ccc13)CCCC2)c1cc2ccccc2o1` [Compound 15, N-(3-((6-chloro-1,2,3,4-tetrahydroacridin-9-yl)amino)propyl)benzofuran-2-carboxamide], for which the half-inhibitory concentration (IC50) on AChE (setting [4]) is 120 nM. Besides, on Aβ1-42 [1] (setting [5]), the inhibition at 80 µM was 51%.
Consider `O=C(NCCCCNc1c2c(nc3ccccc13)CCCC2)c1cc2ccccc2o1` [Compound 14, N-(4-((1,2,3,4-tetrahydroacridin-9-yl)amino)butyl)benzofuran-2-carboxamide], for which the IC50 at AChE (setting [4]) turned out to be 720 nM. On Aβ1-42 [1] (setting [5]), the inhibition at 80 µM was 51.5%.
For the compound `Nc1c2c(nc3ccccc13)CCCC2` [TAC, tacrine, reference compound], the inhibition at 80 µM at Aβ1-42 [1] turned out to be 20%. In addition, the “Radical scavenging activity EC50 (DPPH)” value in data set [2] is given as “weak activity”.
In the case of `O=C(NCCCCNc1c2c(nc3cc(Cl)ccc13)CCCC2)c1cc2ccccc2o1` [Compound 16, N-(4-((6-chloro-1,2,3,4-tetrahydroacridin-9-yl)amino)butyl)benzofuran-2-carboxamide], on AChE (setting [4]), the IC50 is 340 nM. In addition, the inhibition at 80 µM on Aβ1-42 [1] (setting [5]) was determined as 43%.
Consider `O=C(NCCCCNc1c2c(nc3ccccc13)CCCC2)c1cc2cccc(O)c2o1` [Compound 22, 7-Hydroxy-N-(4-((1,2,3,4-tetrahydroacridin-9-yl)amino)butyl)benzofuran-2-carboxamide], for which, at AChE (setting [4]), the IC50 came to 980 nM. Besides, the inhibition at 80 µM is 30.4% on Aβ1-42 [1] (setting [5]) and 54% at Aβ1-42 [3].
For the compound `COc1cccc2cc(C(=O)NCCCNc3c4c(nc5ccccc35)CCCC4)oc12` [Compound 17, 7-Methoxy-N-(3-((1,2,3,4-tetrahydroacridin-9-yl)amino)propyl)benzofuran-2-carboxamide], the IC50 at AChE (setting [4]) worked out at 360 nM. Also, the inhibition at 80 µM on Aβ1-42 [1] (setting [5]) was found to be 57.5%.
In turn, `COc1cccc2cc(C(=O)NCCCCNc3c4c(nc5ccccc35)CCCC4)oc12` [Compound 18, 7-Methoxy-N-(4-((1,2,3,4-tetrahydroacridin-9-yl)amino)butyl)benzofuran-2-carboxamide] returned an IC50 against AChE of 760 nM. Further, the inhibition at 80 µM on Aβ1-42 [1] turned out to be 51.9%. Moreover, the “highest non-toxic concentration selected from dose-response screening” value in the data set with SH-SY5Y cells was found to be 20 µM.
As to `O=C(NCCCNc1c2c(nc3ccccc13)CCCC2)c1cc2ccccc2o1` [Compound 13, N-(3-((1,2,3,4-tetrahydroacridin-9-yl)amino)propyl)benzofuran-2-carboxamide], the IC50 on AChE (setting [4]) was 580 nM. For the same compound, the inhibition at 80 µM on Aβ1-42 [1] (setting [5]) was 60.6%.

Usually IC50 stands for the point on the concentration scale where inhibition reaches its midpoint. The inhibition is the change of the read-out against control, counted positive when it falls.
